From BindingDB's records for patent US9233979 (Merck Sharp & Dohme, 2016)

Target: Mitogen-activated protein kinase 1 (Homo sapiens, UniProt P28482)
Assay: IMAP-FP Assay
Procedure: Activated ERK2 activity was determined in an IMAP-FP assay (Molecular Devices).

Chain of Mitogen-activated protein kinase 1 (P28482 whole entry): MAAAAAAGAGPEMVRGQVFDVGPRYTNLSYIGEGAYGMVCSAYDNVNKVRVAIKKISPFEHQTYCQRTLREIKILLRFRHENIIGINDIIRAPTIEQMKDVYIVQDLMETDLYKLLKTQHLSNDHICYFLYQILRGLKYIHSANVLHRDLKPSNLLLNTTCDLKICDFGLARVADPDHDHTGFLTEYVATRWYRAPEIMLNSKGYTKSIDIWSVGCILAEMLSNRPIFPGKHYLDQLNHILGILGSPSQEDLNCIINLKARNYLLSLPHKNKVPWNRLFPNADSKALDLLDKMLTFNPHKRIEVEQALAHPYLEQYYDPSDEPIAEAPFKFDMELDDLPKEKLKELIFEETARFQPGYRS

In the case of `COC1CN(c2n[nH]c3cc(NC(=O)N[C@H](C)c4ccc(F)cc4)ncc23)C1` [US9233979, 23], the IC50 is reported as 8.69 nM.
